Experimental data taken from article PMC6268492, “Synthesis and Antiangiogenic Activity of Novel Gambogic Acid Derivatives” (Molecules, 2012).
Where two headings read alike, the source gives them in different places.

Legend:
HUVEC = assay: MTT assay, cell proliferation; assay type: cell-based, Human; settings: Homo sapiens, 24 h, read-out: IC50, inhibition of cell proliferation
Method: Inhibiting the proliferation of ECs is another important strategy for antiangiogenesis. […] As the exposure time of these derivatives was 24 h in the migration assay and 6 h in the tube formation assay, the effect of the incubation for 24 h in the presence of these compounds on HUVECs proliferation was then tested. Cell viability was assessed by the MTT method. We can see from Table 4 that these compounds had different antiproliferative activities.
(§1) HepG2, HCT116, HeLa and LO2 cell lines were cultured in DMEM containing 10% fetal bovine serum (FBS), 100 IU/mL penicillin and 100 µg/mL streptomycin; A549 and K562 cell lines were cultured in RPMI 1640 medium containing 10% fetal bovine serum (FBS), 100 IU/mL penicillin and 100 µg/mL streptomycin; Human umbilical vein endothelial cells (HUVECs) were cultured on gelatin-coated culture flasks in M-199 medium with 20% fetal bovine serum (FBS), 2 ng/mL VEGF, 10 ng/mL basic FGF, 100 IU/mL penicillin, and 100 μg/mL streptomycin; all of them were obtained from the American Type Culture Collection (ATCC) and all cell lines were incubated in an atmosphere of 5% CO2 at 37 °C.
(§2) Cells were treated with various concentrations of compound in 96-well culture plates for 24 h in final volumes of 200 μL (5 × 10^3 cells/well). Then 20 μL of MTT solution (5 mg/mL) was added to each well, and cells were incubated for an additional 3 h. Then the medium was carefully removed, and precipitates were dissolved in 150 μL of DMSO, shaken mechanically for 30 min, and then absorbance values at a wavelength of 570 nm were taken on a spectrophotometer (Molecular Devices, Sunnyvale, CA, USA). Values were calculated using percentage of growth versus untreated control. The IC50 was defined as the concentration that caused 50% inhibition of cell proliferation, and was calculated by SAS statistical software.

LO2 = assay: MTT assay, cytotoxicity; assay type: cell-based; settings: Homo sapiens, L02, 24 h, read-out: IC50, inhibition of cell proliferation
Method: as §1, §2

[1] = test system: transgenic fli-1: enhanced GFP zebrafish embryos; assay: Zebrafish embryo assay: antiangiogenic effects; assay type: in vivo, zebrafish (Danio rerio); settings: for inhibition in vivo at 1 µM / antiangiogenic rates: 1 μM
Method: As stated previously, zebrafish is regarded as a powerful tool in the study of human diseases. […] In this study, all GA derivatives were incubated with the transgenic friend leukemia integration-1 (fli-1): enhanced GFP zebrafish embryos which carried a fli-1 promoter which can drive the expression of GFP in the whole endothelium.
Figure 1 Effects on neovascularization in zebrafish embryos. The transgenic fli-1: enhanced GFP zebrafish embryos in embryo water (0.2 g/L of instant ocean salt in distilled water) incubated with 1 μM of compounds at 6 h postfertilization (hpf) for 24 h. Zebrafish embryos were imaged (Imager.Z1, magnification: left, 40×; right, 100×).
Using transgenic fli-1: enhanced GFP zebrafish embryos, we investigated the effects of all compounds on angiogenesis. […] At about 6 h post fertilization (hpf), the embryos were sorted in the 6-well plate (six embryos/well), removing dead and unhealthy embryos. Then the embryos were treated with the indicated concentrations of compounds which were added into embryo water. After incubation for 24 or 48 h, the embryos were anesthetized using 0.05% 2-phenoxyethanol in embryo water, quantified and photographed.

HeLa = assay: MTT assay, cell proliferation; assay type: cell-based; settings: Homo sapiens, 24 h, read-out: IC50, inhibition of cell proliferation
Method: as §1, §2

K562 = assay: MTT assay, cell proliferation; assay type: cell-based; settings: Homo sapiens, 24 h, read-out: IC50, inhibition of cell proliferation
Method: as §1, §2

HCT116 = assay: MTT assay, cell proliferation; assay type: cell-based; settings: Homo sapiens, HCT-116, 24 h, read-out: IC50, inhibition of cell proliferation
Method: as §1, §2

HepG2 = assay: MTT assay, cell proliferation; assay type: cell-based; settings: Homo sapiens, 24 h, read-out: IC50, inhibition of cell proliferation
Method: as §1, §2

A549 = assay: MTT assay, cell proliferation; assay type: cell-based; settings: Homo sapiens, 24 h, read-out: IC50, inhibition of cell proliferation
Method: as §1, §2

[2] = Danio rerio, zebrafish embryos, vs vehicle (0.05% DMSO), read-out: Anti-angiogenic phenotype

Row | Compound | IC50 (HUVEC) [µM] | IC50 (LO2) [µM] | antiangiogenic activities ([1]; 2.5 μM, not enhanced greatly at 10 μM) | inhibition in vivo at 1 µM ([1]; Danio rerio, zebrafish embryos, read-out: antiangiogenic rates) [%] | inhibition in vivo at 1 µM [1, 2] [%] | inhibition in vivo at 2.5 µM ([1]; Danio rerio, 2.5 μM, zebrafish embryos, vs vehicle (0.05% DMSO), read-out: Anti-angiogenic phenotype) [%] | inhibition in vivo at 10 µM [1, 2] [%] | IC50 (HeLa) [µM] | IC50 (K562) [µM] | IC50 (HCT116) [µM] | IC50 (HepG2) [µM] | IC50 (A549) [µM] | antiangiogenic rates ([1]; zebrafish embryos)
1 | CC(C)=CCCC1(C)C=Cc2c(O)c3c(c(CC=C(C)C)c2O1)OC12C(=CC4CC1C(C)(C)OC2(C/C=C(/C)C(=O)Oc1ccc(NC(=O)CCCl)cc1)C4=O)C3=O (stereo not shown) [Compound 9, 3-Chloro-N-(4-phenylgambogate)propanamide] | 4.27 ± 0.25 | 1 ± 0.1 | moderate | < 25 | < 25 | 25 to 50 | 25 to 50 | 3.42 ± 0.19 | 1.14 ± 0.03 | 2.05 ± 0.41 | 5.16 ± 0.55 | 3.75 ± 0.35 | 
2 | CC(C)=CCCC1(C)C=Cc2c(O)c3c(c(CC=C(C)C)c2O1)OC12C(=CC4CC1C(C)(C)OC2(C/C=C(/C)C(=O)Oc1ccc(C(=O)CBr)cc1)C4=O)C3=O (stereo not shown) [Compound 16, 4-(2-Bromoacetyl)phenyl gambogate] | 11.9 ± 1.36 | 5.25 ± 0.51 |  |  |  |  | 25 to 50 | 8.98 ± 0.58 | 3.46 ± 0.34 | 5.08 ± 0.77 | 4.51 ± 0.29 | > 80 | inactive
3 | COCCc1ccc(OC(=O)/C(C)=C\CC23OC(C)(C)C4CC(C=C5C(=O)c6c(O)c7c(c(CC=C(C)C)c6OC542)OC(C)(CCC=C(C)C)C=C7)C3=O)cc1 (stereo not shown) [Compound 18, 4-(2-Methoxyethyl)phenyl gambogate] | 10.4 ± 1.08 | 15.2 ± 0.72 |  |  |  |  |  | > 80 | 7.52 ± 0.83 | 2.45 ± 0.15 | 6.45 ± 0.37 | 66.2 ± 1.65 | 
4 | CC(C)=CCCC1(C)C=Cc2c(O)c3c(c(CC=C(C)C)c2O1)OC12C(=CC4CC1C(C)(C)OC2(C/C=C(/C)C(=O)Oc1ccc(Br)cc1)C4=O)C3=O (stereo not shown) [Compound 19, 4-Bromophenyl gambogate] | 68 ± 4 | > 80 |  |  |  |  |  | > 80 | > 80 | 70.2 ± 3.06 | > 80 | > 80 | 
5 | CC(C)=CCCC1(C)C=Cc2c(O)c3c(c(CC=C(C)C)c2O1)OC12C(=CC4CC1C(C)(C)OC2(C/C=C(/C)C(=O)Oc1ccc(C=O)cc1)C4=O)C3=O (stereo not shown) [Compound 20, 4-Formylphenyl gambogate] | 7.7 ± 0.32 | 9.92 ± 0.52 |  |  |  |  | 25 to 50 | 24.3 ± 2.13 | 4.52 ± 0.43 | 7.9 ± 0.14 | 5.86 ± 0.4 | 31.2 ± 2.29 | inactive
6 | CCc1ccc(OC(=O)/C(C)=C\CC23OC(C)(C)C4CC(C=C5C(=O)c6c(O)c7c(c(CC=C(C)C)c6OC542)OC(C)(CCC=C(C)C)C=C7)C3=O)cc1 (stereo not shown) [Compound 21, 4-Ethylphenyl gambogate] | 70.5 ± 4.86 | > 80 |  |  |  |  |  | > 80 | > 80 | > 80 | > 80 | > 80 | 
7 | COc1ccc(OC(=O)/C(C)=C\CC23OC(C)(C)C4CC(C=C5C(=O)c6c(O)c7c(c(CC=C(C)C)c6OC542)OC(C)(CCC=C(C)C)C=C7)C3=O)cc1Br (stereo not shown) [Compound 22, 2-Bromo-4-methoxyphenyl gambogate] | 51.3 ± 1.1 | > 80 |  |  |  |  | 25 to 50 | > 80 | 36.9 ± 0.56 | 36.9 ± 0.64 | 63.2 ± 3.88 | > 80 | inactive
8 | CC(C)=CCCC1(C)C=Cc2c(O)c3c(c(CC=C(C)C)c2O1)OC12C(=CC4CC1C(C)(C)OC2(C/C=C(/C)C(=O)Oc1ccc(Br)c(F)c1F)C4=O)C3=O (stereo not shown) [Compound 24, 4-Bromo-2,3-difluorophenyl gambogate] | > 80 | > 80 |  |  |  |  |  | > 80 | > 80 | > 80 | > 80 | > 80 | 
9 | CC(C)=CCCC1(C)C=Cc2c(O)c3c(c(CC=C(C)C)c2O1)OC12C(=CC4CC1C(C)(C)OC2(C/C=C(/C)C(=O)Oc1ccc(C(C)(C)CC(C)(C)C)cc1)C4=O)C3=O (stereo not shown) [Compound 25, 4-(2,4,4-Trimethylpentan-2-yl)phenyl gambogate] | > 80 | > 80 |  |  |  |  |  | > 80 | > 80 | > 80 | > 80 | > 80 | 
10 | CC(=O)Nc1ccccc1OC(=O)/C(C)=C\CC12OC(C)(C)C3CC(C=C4C(=O)c5c(O)c6c(c(CC=C(C)C)c5OC431)OC(C)(CCC=C(C)C)C=C6)C2=O (stereo not shown) [Compound 27, 2-Acetamidophenyl gambogate] | 0.5 ± 0.03 | 1.52 ± 0.12 |  |  |  |  |  | 3.51 ± 0.15 | 0.52 ± 0.02 | 1.05 ± 0.07 | 0.69 ± 0.08 | 1.22 ± 0.25 | 
11 | CC(C)=CCCC1(C)C=Cc2c(O)c3c(c(CC=C(C)C)c2O1)OC12C(=CC4CC1C(C)(C)OC2(C/C=C(/C)C(=O)Sc1nccs1)C4=O)C3=O (stereo not shown) [Compound 29, S-thiazol-2-yl gambogthioate] | 6.64 ± 0.11 | 4.28 ± 0.33 |  |  |  |  |  | 1.45 ± 0.07 | 0.79 ± 0.06 | 1.63 ± 0.15 | 0.85 ± 0.15 | 0.63 ± 0.01 | 
12 | CC(=O)Nc1ccc(SC(=O)/C(C)=C\CC23OC(C)(C)C4CC(C=C5C(=O)c6c(O)c7c(c(CC=C(C)C)c6OC542)OC(C)(CCC=C(C)C)C=C7)C3=O)cc1 (stereo not shown) [Compound 30, 4-Acetamidophenyl gambogthioate] | 1.03 ± 0.07 | 2.84 ± 0.34 |  |  |  |  |  | 3.43 ± 0.28 | 0.44 ± 0.02 | 1.33 ± 0.07 | 1.72 ± 0.03 | 1.24 ± 0.09 | 
13 | CC(C)=CCCC1(C)C=Cc2c(O)c3c(c(CC=C(C)C)c2O1)OC12C(=CC4CC1C(C)(C)OC2(C/C=C(/C)C(=O)n1cccn1)C4=O)C3=O (stereo not shown) [Compound 33, 1-Gambogyl pyrazole] | 0.57 ± 0.03 | 1.75 ± 0.09 |  |  |  |  |  | 4.23 ± 0.39 | 0.53 ± 0.05 | 1.2 ± 0.09 | 1 ± 0.06 | 1.3 ± 0.08 | 
14 | CC(C)=CCCC1(C)C=Cc2c(O)c3c(c(CC=C(C)C)c2O1)OC12C(=CC4CC1C(C)(C)OC2(C/C=C(/C)C(=O)Nc1nc2ccccc2s1)C4=O)C3=O (stereo not shown) [Compound 34, N-(benzo[d]thiazol-2-yl) gambogamide] | 5.63 ± 0.2 | 7.3 ± 1.2 |  |  |  |  |  | > 80 | > 20 | 7.74 ± 1.43 | 8.65 ± 0.46 | 21.4 ± 3.71 | 
